Values joined by “and” are separate entries in the source; they are usually repeats but may differ in a detail not shown here. Identical values can stand only once.
System: phosphoenolpyruvate carboxylase (PEPC)
Assay type: biochemical, wheat germ

| Structure (SMILES) | k × 10^3 | T1/2 (half-life seconds) |
| --- | --- | --- |
| [K+].[O-][Cl+2]([O-])[O-] [KClO3] | 24 |  |
| [K+].[O-][Cl+3]([O-])([O-])[O-] [KClO4] | 6.3 | 1.73 min |
| [I-].[K+] [KI] | 12 |  |
| N#CS [KSCN, potassium thiocyanate] | 4.67 and 4.70 and 4.72 and 4.62 and 4.55 and 4.46 |  |
